Literature values, collected in US20230303507A1, “RIGID C[…] AS POTENT MODULATORS OF CANNABINOID RECEPTORS AND USES THEREOF” (priority 2020, published 2023).

Molecular target: CB2 (Homo sapiens, UniProt P34972)
Sequence (P34972 whole entry, species assumed): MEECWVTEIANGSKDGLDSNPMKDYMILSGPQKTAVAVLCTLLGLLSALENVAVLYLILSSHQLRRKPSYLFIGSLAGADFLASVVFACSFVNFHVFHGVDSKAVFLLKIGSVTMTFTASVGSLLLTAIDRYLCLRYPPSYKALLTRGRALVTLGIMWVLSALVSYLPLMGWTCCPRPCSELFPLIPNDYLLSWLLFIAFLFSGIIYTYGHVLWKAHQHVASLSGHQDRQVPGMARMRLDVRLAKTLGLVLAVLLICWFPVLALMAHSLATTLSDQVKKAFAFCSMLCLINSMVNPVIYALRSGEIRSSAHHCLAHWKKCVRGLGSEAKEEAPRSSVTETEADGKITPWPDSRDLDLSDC

| SMILES | mode of action on CB2 |
| --- | --- |
| C=C(C)[C@@H]1CCC(C)=C[C@H]1c1c(O)cc(CCCCC)cc1O [CBD, cannabidiol] | weak inverse agonist |
| CCCCCc1cc(O)c2c(c1)OC(C)(C)[C@@H]1CCC(C)=C[C@@H]21 [THC, delta-9-tetrahydrocannabinol] | partial agonist |
